Entries after “also recorded” stand apart in the source; their conditions may differ. Read-outs that look alike come from different tables or passages of the source.
Key:
[1] = tested on: patients with AdvSM and other myeloid malignancies; assay: 3 + 3 dose escalation: MTD, DLT and RP2D; type: in vivo
Description: This phase 1, open-label study comprised a dose-escalation phase (part 1) and a dose-expansion phase (part 2; Fig. 1). During dose escalation, patients received oral avapritinib at starting doses ranging from 30 to 400 mg QD in continuous 28-d treatment cycles. Dose escalation followed a 3 + 3 design (described below) until the MTD or RP2D was determined. During part 1, intra-patient dose escalation to assess dose levels not exceeding the MTD was allowed. Dose expansion was initially conducted at a starting dose of 300 mg QD; a second expansion cohort at 200 mg QD was subsequently introduced via protocol amendment. Dosing continued until patients experienced unacceptable toxicity, disease progression, death or withdrew consent.
The 3 + 3 dose-escalation design used cohorts of three to six patients. The first cohort received avapritinib at a starting dose of 30 mg daily. […] Three patients were enrolled initially in each cohort with an additional accrual of three patients if the cohort required expansion due to DLT. Once the escalation cohort was full, up to three additional patients (diagnosis of AdvSM only) could be enrolled into an enrichment cohort at a lower dose. Data from these patients were intended for further exploration of PK, pharmacodynamics and safety in patients with AdvSM.
The safety population included all enrolled patients and was used to report AEs and PROs (in those who completed the questionnaire). The dose-determining population included all patients in a cohort in part 1 who received ≥21 prescribed avapritinib doses in C1 and completed follow-up through C1, or experienced DLT. The determination of the MTD and RP2D were based on the dose-determining population. […] The AdvSM safety population was also used to report AEs and OS. […] The response-evaluable population was used to report adjudicated response rates and PFS. The PK population comprised all patients with sufficient plasma concentration–time data to reliably estimate the PK parameters of avapritinib.

[2] = Plasma pharmacokinetics, non-compartmental analysis; type: in vivo, human
Description: On D1 and D15 of C1, blood samples for PK analysis were collected before the dose, and 0.5, 1, 2, 4, 8 and 24 h (C1D1 only) after the dose. C2D1 pre-dose concentration was used as the C1D15 24-h concentration for PK analysis. Additional pre-dose samples were collected on D1 of C3 and C4. Avapritinib PK parameters were obtained by non-compartmental analysis of the plasma concentration data versus nominal time using Phoenix WinNonlin© (version 8.0, Certara).
Plasma concentration–time profiles across dose levels and dose versus systemic exposure (Cmax and AUC) relationships were assessed graphically. Systemic exposure parameters of interest included the arithmetic and geometric mean, Cmax and AUC, and 90% CIs.

[3] = tested on: AdvSM symptom burden; assay: Patient-reported outcomes: AdvSM-SAF total symptom score; type: in vivo, human; settings: C11; P = 0.002, n = 20; baseline 19.1 points (n = 40)
From the text: The AdvSM-SAF comprises a ten-item questionnaire completed by the patient daily, specifically designed to assess symptoms related to AdvSM and measure the impact of treatments on patient symptom improvement. […] The AdvSM-SAF assesses the severity of eight symptoms of AdvSM, including abdominal pain, nausea, vomiting, diarrhea, spots, itching, flushing and fatigue over a 24-h period on a numerical rating scale, and also measures the frequency of vomiting and diarrhea by asking patients to enter a discrete numerical value. Data were analyzed at the item level, domain level and total score level. Domain level analyses are: • Gastrointestinal symptoms score (abdominal pain, nausea, vomiting and diarrhea severity (range 0–40)) • Skin symptom score (spots, itching and flushing severity (range 0–30))
The TSS was achieved by summing all eight severity items (range 0–80).

[4] = tested on: advanced systemic mastocytosis (AdvSM); assay: Kaplan–Meier estimates of DOR, PFS and OS; type: in vivo, human
Description: Spleen response was determined for patients with baseline splenomegaly (spleen ≥ 5 cm by palpation) and was assessed by palpation or spleen volume by imaging (that is, ≥35% reduction from baseline in spleen volume based on central imaging); presence of either criterion was considered a response. DOR started at the first evidence of a response in any evaluable C-finding (per mIWG-MRT-ECNM criteria) and ended at the time a response was lost (that is, loss of response per mIWG-MRT-ECNM criteria). For patients who were still responding at the time of analysis, DOR was censored at the latest time point that the patient is assessed as having clinical improvement or better. OS was analyzed in the safety population and was defined as the time from first dose to the time of death due to any cause. PK data were summarized for patients with sufficient plasma concentration–time data. Descriptive statistics were used to summarize PK parameters for each dose level, as appropriate.
ORR was defined as the proportion of patients with a confirmed best response of CR, CRh, PR or clinical improvement by mIWG-MRT-ECNM consensus criteria. Time to CR/CRh/PR was defined as the time from the start of treatment to the time a CR/CRh/PR by mIWG-MRT-ECNM was first met. DOR was defined as the time from first documented response to the date of first documented progressive disease/loss of response or death due to any cause, whichever occurred first. OS was defined as the time from the start of treatment to the date of death. PFS was defined as the time from the start of treatment to the date of first documented progressive disease or death due to any cause, whichever occurred first. Progressive disease was defined per mIWG-MRT-ECNM criteria as worsening of ≥1 baseline C-finding confirmed for at least 4 weeks, or progression to acute myeloid leukemia.
OS, PFS and DOR were determined by Kaplan–Meier estimates, and 95% CIs were estimated using Greenwood’s formula[41]. Comparisons between two Kaplan–Meier functions was performed using a log-rank test.

Cn1cc(-c2cc3c(N4CCN(c5ncc([C@@](C)(N)c6ccc(F)cc6)cn5)CC4)ncnn3c2)cn1 [avapritinib]
Maximum tolerated dose (MTD) ([1]; doses of 30–400 mg once daily): No maximum tolerated dose (MTD) was determined; also recorded: not reached
Recommended phase 2 dose (RP2D) ([1]; human, in vivo, 28 d): 200 mg
Recommended phase 2 dose (RP2D) initially selected for part 2 ([1]; human, in vivo, 28 d): 300 mg QD
Patients with dose-limiting toxicity (DLT) ([1]; in vivo): one
Time at which steady state was reached ([2]; QD dosing): ≤ 15 days
half-life ([2]; human, plasma, oral, Cycle 1 Day 15, read-out: Steady state t½): > 1200 min
half-life ([2]; human, plasma, oral, range across doses, read-out: Mean plasma elimination half-life): 1190 to 2300 min
AUC ([2]; human, plasma, oral, 200 mg QD, C1 D15, CV 54.2%, n = 16, read-out: Steady-state geometric mean AUC0-τ): 7340 ng·h/mL
Cmax ([2]; human, plasma, oral, 200 mg QD, C1 D15, CV 62.2%, n = 18, read-out: Steady-state geometric mean maximum plasma concentration (Cmax)): 433 ng/mL
Tmax ([2]; human, plasma, single oral doses of 30 to 400 mg, read-out: Time to maximum plasma concentration (Tmax)): 2 to 4 h
Mean change from baseline AdvSM-SAF TSS [3]: −10.9 points
Median duration of response (DOR) ([4]; 95% CI, 22 months–not estimable): 38 months
Estimated 24-month DOR rate ([4]; 95% CI, 49–84%): 67%
Estimated 12-month DOR rate ([4]; 95% CI, 72–96%): 84%
Median OS ([4]; AdvSM safety population (n = 69), median follow-up 23 months): not reached
Estimated 24-month OS rate ([4]; overall AdvSM, 95% CI, 64–87%): 76%
Estimated 24-month OS rate ([4]; patients with ASM): 100%
Estimated 24-month OS rate ([4]; patients with MCL, 95% CI, 76–100%): 92%
Estimated 24-month OS rate ([4]; patients with SM-AHN): 67%
OS (24-month OS rate) ([4]; patients with a MARS of 0–1, post hoc): 100%
Estimated PFS rate at 24 months ([4]; response-evaluable population (n = 53), 95% CI, 48–79%): 63%
Estimated PFS rate at 12 months ([4]; response-evaluable population (n = 53), 95% CI, 73–94%): 84%
Patients who progressed to acute myeloid leukemia ([4]; six patients, during the study): 9%
